Paper PMC12603070, “A high-throughput screening approach to discover potential colorectal cancer chemotherapeutics: repurposing drugs to identify novel disruptors of 14-3-3 proteins” (Cell Death & Disease, 2025)
Where a name gives a salt, the structure may show the parent alone. Read-outs that look alike come from different tables or passages of the source.

Key:
[1] = molecular target: T1, 14-3-3ζ:BAD-112-136F interactions (Homo sapiens, UniProt P63104); test: BRET sensor screen for disruption of 14-3-3ζ-Rluc8:BAD-112-136F-mCitrine in living NIH-3T3 cells; type: cell-based, murine; parameters: inhibition: dose or concentration left out as unconfirmed; BRET reduction on NIH-3T3: unit not given here; settings: for inhibition at 20 µM / inhibition: read-out: BRET reduction on NIH-3T3
T1 construct: expressed in transfected cells; host or cells: NIH-3T3 fibroblasts, bi-directional pBI-CMV1 plasmid
T1 sequence (P63104 1-245): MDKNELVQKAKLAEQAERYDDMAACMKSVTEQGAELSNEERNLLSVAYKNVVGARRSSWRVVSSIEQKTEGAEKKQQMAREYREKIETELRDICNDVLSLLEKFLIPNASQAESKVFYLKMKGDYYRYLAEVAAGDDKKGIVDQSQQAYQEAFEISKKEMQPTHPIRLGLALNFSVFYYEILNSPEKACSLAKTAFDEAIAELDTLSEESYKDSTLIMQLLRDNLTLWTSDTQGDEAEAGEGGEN
Experimental: The Z’-score, which evaluates the robustness of an HTS assay readout, was calculated according to standard protocols. For the HTS, 384-well plates were coated with 100 μg/mL poly-L-ornithine (Sigma, Missouri, United States; #P3655) overnight at 37 °C, followed by rinsing with sterilized water. NIH-3T3 cells were transfected with the BRET sensor two days prior to experimentation, followed by replating onto the pre-coated 384-well plates at a density of 20,000 cells/well. After 24 h of incubation at 37 °C, growth media was replaced by Krebs buffer (pH 7.4).

NIH-3T3 cells = test: Hoechst/propidium iodide cell death assay in NIH-3T3; type: cell-based; settings: for cytotoxicity at 20 µM: Mus musculus, NIH3T3, 24 h, read-out: Percentage of cell death % 24h NIH3t3
Excerpt: (§1) A high-content imaging system (PerkinElmer; Operetta CLS), was used to quantify cell death and apoptosis by calculating the number of propidium iodide-positive cells relative to Hoechst-positive cells, and the number of Annexin V-positive cells relative to Hoechst-positive cells, respectively.

HT-29 cells = test: Hoechst/propidium iodide cell death assay in HT-29; type: cell-based, human; settings: for cytotoxicity at 20 µM: Homo sapiens; for %Cell death HT-29: time not given
Excerpt: as §1

Caco-2 cells = type: cell-based; settings: for Percentage of cell death % 24h CACO-2: 20 µM; for Percentage of cell death % 48h, Caco-2: 20 μM
Excerpt: as §1

[2] = NIH-3T3 cells, hits from the primary screen
[3] = NIH-3T3 expressing BRET sensor, 20 µM, 3 h
[4] = HT-29, 24 h, read-out: Percentage of cell death % 24h HT-29
[5] = HT-29, 48 h, read-out: Percentage of cell death % 48h, HT-29
[6] = NIH3T3, 3 h, NIH-3T3 cells, hits from the primary screen
[7] = NIH3T3, 3 h, NIH-3T3 expressing BRET sensor, 20 µM, 3 h
[8] = HT-29, 24 h, 20 µM, 24 h, read-out: Percentage of cell death % 24h HT-29
[9] = HT-29, 48 h, HT-29, 48h, 20 μM, read-out: Percentage of cell death % 48h, HT-29

Row | SMILES | BRET reduction on NIH-3T3 [1, 2] | Percentage of cell death % 48h, NIH3T3 (NIH-3T3 cells) [%] | Percentage of cell death % 24h CACO-2 (Caco-2 cells) [%] | Percentage of cell death % 48h, Caco-2 (Caco-2 cells) [%] | inhibition [1, 6] [%] | inhibition at 20 µM [1, 7] [%] | cytotoxicity at 20 µM (NIH-3T3 cells; 20 µM, 24 h) [%] | cytotoxicity at 20 µM (HT-29 cells; [8]) [%] | cytotoxicity at 20 µM (HT-29 cells; [9]) [%] | other results
1 | C[C@@H](NCCCc1cccc(C(F)(F)F)c1)c1cccc2ccccc12 [Cinacalcet HCl] | 50.3473 | 69.2945 | 64.4357 | 76.6269 |  |  |  |  |  | BRET reduction on NIH-3T3 [1, 3]: 50.3473; Percentage of cell death % 24h NIH3t3 (NIH-3T3 cells; 20 µM, 24 h): 81.0537%; Percentage of cell death % 24h HT-29 (HT-29 cells; 20 µM, 24 h): 35.6614%; Percentage of cell death % 48h, HT-29 (HT-29 cells; HT-29, 48h, 20 μM): 79.6038%
2 | Oc1cc(Cl)ccc1Oc1ccc(Cl)cc1Cl [Triclosan] | 35.6098 | 20.8092 | 23.0449 | 14.8508 |  |  |  |  |  | inhibition at 20 µM ([1]; NIH3T3, 3 h): 35.6%; cytotoxicity at 20 µM (NIH-3T3 cells): 58.2%; cytotoxicity at 20 µM (HT-29 cells; [4]): 20.3%; cytotoxicity at 20 µM (HT-29 cells; [5]): 21.6%
3 | CCCCCCCCCCCC1=C(O)C(=O)C=C(O)C1=O [Embelin] |  | 37.4899 |  |  | 37 | 37 | 69.5 | 19 | 51.8 | %Cell death HT-29 (HT-29 cells; HT-29): 51.8%; %Cell death Caco-2 (Caco-2 cells): 1.7%
4 | CCc1cc(/C(C)=N/OCc2ccc(C3CCCCC3)c(C(F)(F)F)c2)ccc1CN1CC(C(=O)O)C1 [BAF312 (Siponimod), Siponimod] |  | 0.7911 | 2.6196 | 2.567 | 28.7 | 28.7 | 0.738 | 0.683 | 1.58 | 
5 | OC(CNCC(O)C1CCc2cc(F)ccc2O1)C1CCc2cc(F)ccc2O1 (stereo not drawn) [Nebivolol] |  | 64.5697 |  |  | 34.7 | 34.7 | 64.6 | 9.8 | 67.3 | %Cell death HT-29 (HT-29 cells; HT-29): 67.3%; %Cell death Caco-2 (Caco-2 cells): 45.0%
6 | Cc1ccc(Sc2ccccc2N2CCNCC2)c(C)c1 [Vortioxetine (Lu AA21004) HBr, Vortioxetine] |  | 71.7539 | 33.0298 | 76.1709 | 35.4 | 35.4 | 78.5 | 7.35 | 52.1 | %Cell death HT-29 (HT-29 cells; HT-29): 52.1%; %Cell death Caco-2 (Caco-2 cells; time not given, text says 48 h): 52.1%
7 | Cc1ccc(C(=O)N(CCCN)[C@@H](c2nc3cc(Cl)ccc3c(=O)n2Cc2ccccc2)C(C)C)cc1 [Ispinesib (SB-715992), Ispinesib] | 44.0919 | 78.7121 | 86.1725 | 89.1796 |  |  |  |  |  | inhibition at 20 µM ([1]; NIH3T3, NIH-3T3 expressing BRET sensor, 20 µM, 3 h): 44.1%; cytotoxicity at 20 µM (NIH-3T3 cells): 87.5%; cytotoxicity at 20 µM (HT-29 cells; [4]): 50.8%; cytotoxicity at 20 µM (HT-29 cells; [5]): 86.7%
8 | CCOC(=O)C1=C(C)NC(C)=C(C(=O)OCC)C1c1ccccc1/C=C/C(=O)OC(C)(C)C [Lacidipine] |  | 0.2227 | 4.66 | 4.938 | 27.1 | 27.1 | 0.275 | 1.94 | 2.6 | 
9 | CCCCCCCCCCCCCCCC[N+](C)(C)C [Cetrimonium Bromide (CTAB), Cetrimonium Bromide] | 35.3912 | 66.4515 | 19.5542 | 50.4821 |  |  |  |  |  | inhibition at 20 µM ([1]; NIH3T3, 3 h): 35.4%; cytotoxicity at 20 µM (NIH-3T3 cells): 73.5%; cytotoxicity at 20 µM (HT-29 cells; [4]): 11.5%; cytotoxicity at 20 µM (HT-29 cells; [5]): 55.4%
10 | CO[C@H]1C[C@H](O[C@H]2[C@H](C)O[C@@H](O[C@@H]3/C(C)=C/C[C@@H]4C[C@@H](C[C@]5(C=C[C@H](C)[C@@H](C6CCCCC6)O5)O4)OC(=O)[C@@H]4C=C(C)[C@@H](O)[C@H]5OC/C(=C\C=C\[C@@H]3C)[C@]54O)C[C@@H]2OC)O[C@@H](C)[C@@H]1O [Doramectin] | 36.2699 | 58.749 |  |  |  |  |  |  |  | BRET reduction on NIH-3T3 [1, 3]: 36.2699; Percentage of cell death % 24h NIH3t3 (NIH-3T3 cells; 20 µM, 24 h): 51.7189%; Percentage of cell death % 24h HT-29 (HT-29 cells; 20 µM, 24 h): 11.0069%; Percentage of cell death % 48h, HT-29 (HT-29 cells; HT-29, 48h, 20 μM): 51.5756%; %Cell death HT-29 (HT-29 cells; HT-29): 51.6%; %Cell death Caco-2 (Caco-2 cells): 32.3%
11 | Cl.Cl.Fc1ccc(C(c2ccc(F)cc2)N2CCN(C/C=C/c3ccccc3)CC2)cc1 [Flunarizine 2HCl] | 36.4286 | 0.5715 | 3.891 | 3.726 |  |  |  |  |  | BRET reduction on NIH-3T3 [1, 3]: 36.4286; Percentage of cell death % 24h NIH3t3 (NIH-3T3 cells; 20 µM, 24 h): 0.377%; Percentage of cell death % 24h HT-29 (HT-29 cells; 20 µM, 24 h): 0.7908%; Percentage of cell death % 48h, HT-29 (HT-29 cells; HT-29, 48h, 20 μM): 1.34%
12 | C[C@H](CCC(=O)O)[C@H]1CC[C@H]2[C@@H]3CC[C@@H]4C[C@H](O)CC[C@]4(C)[C@H]3CC[C@]12C [Lithocholic Acid] |  | 0.3149 | 2.024 | 1.756 | 40.1 | 40.1 | 2.68 | 0.614 | 2.06 | 
13 | Clc1ccc(CO/N=C(\Cn2ccnc2)c2ccc(Cl)cc2Cl)c(Cl)c1.O=[N+]([O-])O [Oxiconazole (nitrate)] |  | 4.864 | 8.851 | 7.056 |  |  |  |  |  | Percentage of cell death % 24h NIH3t3 (NIH-3T3 cells; 20 µM, 24 h): 5.3556%; Percentage of cell death % 24h HT-29 (HT-29 cells; 20 µM, 24 h): 3.543%; Percentage of cell death % 48h, HT-29 (HT-29 cells; HT-29, 48h, 20 μM): 5.935%
14 | CC(C)(C)c1cc(C(C)(C)C)c(NC(=O)c2c[nH]c3ccccc3c2=O)cc1O [Ivacaftor (VX-770), Ivacaftor] |  | 12.0089 | 14.0443 | 14.6425 | 39 | 39 | 7.87 | 9.35 | 60.7 | 
15 | CCOC(=O)N1CCC(=C2c3ccc(Cl)cc3CCc3cccnc32)CC1 [Loratadine] |  | 16.5359 | 3.76 | 3.356 | 25.5 | 25.5 | 9.83 | 0.925 | 3.3 | 
16 | CCCCCCCCCCCCCCCC[n+]1ccccc1 [Cetylpyridinium Chloride] |  | 74.7179 | 22.2457 | 63.7687 |  |  |  |  |  | cytotoxicity at 20 µM (NIH-3T3 cells): 81.9%; cytotoxicity at 20 µM (HT-29 cells; [4]): 27.2%; cytotoxicity at 20 µM (HT-29 cells; [5]): 76.9%
17 | CSc1ccc2c(c1)N(CCC1CCCCN1C)c1ccccc1S2 (stereo not drawn) [Thioridazine HCl] |  | 84.4863 |  |  | 27.4 | 27.4 | 83.3 | 1.72 | 16.7 | 
18 | Cc1c(C)c2c(c(C)c1O)CCC(C)(COc1ccc(CC3SC(=O)NC3=O)cc1)O2 (stereo not drawn) [Troglitazone] |  | 0.3187 |  |  | 30.9 | 30.9 | 0.791 | 0.272 | 0.925 | 
19 | C=CC[C@@H]1/C=C(\C)C[C@H](C)C[C@H](OC)[C@H]2O[C@@](O)(C(=O)C(=O)N3CCCC[C@H]3C(=O)O[C@H](/C(C)=C/[C@@H]3CC[C@@H](O)[C@H](OC)C3)[C@H](C)[C@@H](O)CC1=O)[C@H](C)C[C@@H]2OC [Tacrolimus (FK506), Tacrolimus] |  | 0.523 |  |  | 26 | 26 | 0.808 | 0.958 | 2.46 | 
